Consider 1 compound from ChEMBL document CHEMBL4152297, “Ligand-selective small molecule modulators of the constitutively active vGPCR US28” (Eur J Med Chem, 2018).

Each structure is given as a SMILES string. Activity calls are given as the source filed them. No cut-off for these calls is given here.

A word on the inhibition: it is the relative decrease from the control value, in per cent.

Common to all, as to assay type: cell-based
In test [1] the test system is HEK293. Briefly: Modulation of basal activity of HCMV US28 delta300 mutant expressed in tetracyclin-induced HEK293 cells assessed as change in inositol phosphate accumulation at 10 uM using [3H]-myo-inositol by scintillation proximity assay relative to control. To be noted: Human betaherpesvirus 5. On the technique in general: SPA uses beads or plates that emit light when radiolabelled molecules are held near them.

Test [2] in a line: Inverse agonist activity at HCMV US28 expressed in African green monkey COS7 cells assessed as inhibition of inositol phosphate accumulation using [3H]-myo-inositol by liquid scintillation counting method. To be noted: Human betaherpesvirus 5, COS-7.
Test [3] has as its system HEK293. Briefly: Displacement of [125I]-CCL4 from HCMV US28 expressed in HEK293 cells at 10 uM after 3 hrs by gamma counting method relative to control. To be noted: Human betaherpesvirus 5.
Test [4] has as its system HEK293. In words: Displacement of [125I]-CCL2 from HCMV US28 expressed in HEK293 cells at 10 uM after 3 hrs by gamma counting method relative to control. To be noted: Human betaherpesvirus 5.
The test system of test [5] is HEK293. In words: Displacement of [125I]-CX3CL1 from HCMV US28 expressed in HEK293 cells at 10 uM after 3 hrs by gamma counting method relative to control. To be noted: Human betaherpesvirus 5. Background: In a radioligand displacement assay an active substance lowers the binding of a labelled ligand.
Test [6] can be described thus: Modulation of basal activity of HCMV US28 expressed in tetracyclin-induced HEK293 cells assessed as change in inositol phosphate accumulation using [3H]-myo-inositol by scintillation proximity assay. To be noted: Human betaherpesvirus 5, HEK293.
For test [7], the system named is HEK293. In words: Modulation of basal activity of HCMV US28 expressed in tetracyclin-induced HEK293 cells assessed as change in inositol phosphate accumulation at 10 uM using [3H]-myo-inositol by scintillation proximity assay relative to control. To be noted: Human betaherpesvirus 5.
The nature of test [8]: Modulation of basal activity of HCMV US28 delta300 mutant expressed in tetracyclin-induced HEK293 cells assessed as change in inositol phosphate accumulation using [3H]-myo-inositol by scintillation proximity assay. To be noted: Human betaherpesvirus 5, HEK293.

In the case of `N#CC(CCCN1CCC(O)(c2ccc(Cl)cc2)CC1)(c1ccccc1)c1ccccc1` [BERLEX COMPOUND], the Efficacy in the test with HEK293 [1] is 99%; in the test on HEK293 [4], 60%; in the test on HEK293 [7], -31%. The EC50 in test [2] was 3.5 µM; in test [6] (read-out: EC50), 10 µM; in test [6] (read-out: pEC50 (converted)), 10 µM; in test [8] (read-out: EC50), 0.86 µM; in test [8] (read-out: pEC50 (converted)) it was 0.794 µM. Further, the inhibition with HEK293 [3] came out at 65%. Further, in the test on HEK293 [5], the inhibition result was “inactive”.
